Experimental data: US20210253557A1, “SUBSTITUTED TRIAZOLE DERIVATIVES AND USES THEREOF” (Bayer Pharma Aktiengesellschaft, priority 2017, published 2021)

Key:
human V1a receptor = target: T1, human V1a receptor (Homo sapiens, UniProt P37288); test: Cellular in vitro assay for determining vasopressin receptor activity (V1a, aequorin luminescence); format: cell-based; settings: for IC50: CHO cell line transfected with the human V1a receptor, [Arg8]-vasopressin at EC50 concentration, read-out: IC50 hV1a; for ratio IC50 hV2/hV1a: selectivity ratio of IC50 hV2 to IC50 hV1a
T1 construct: expressed in transfected cells; host or cells: CHO K1 (ATCC), also stably transfected with a modified aequorin
T1 sequence (P37288 whole entry): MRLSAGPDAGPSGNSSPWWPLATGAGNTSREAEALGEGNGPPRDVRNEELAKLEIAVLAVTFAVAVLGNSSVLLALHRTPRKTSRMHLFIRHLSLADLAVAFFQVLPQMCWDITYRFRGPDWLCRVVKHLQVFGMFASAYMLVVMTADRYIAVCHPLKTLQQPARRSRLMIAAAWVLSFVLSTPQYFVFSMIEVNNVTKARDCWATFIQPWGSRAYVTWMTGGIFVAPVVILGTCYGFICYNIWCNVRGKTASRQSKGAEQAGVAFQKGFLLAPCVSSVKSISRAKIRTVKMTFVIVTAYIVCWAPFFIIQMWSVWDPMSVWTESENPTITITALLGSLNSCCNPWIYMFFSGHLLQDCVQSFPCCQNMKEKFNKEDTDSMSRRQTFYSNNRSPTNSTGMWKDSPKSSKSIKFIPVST

human V2 receptor = target: T2, human V2 receptor (Homo sapiens, UniProt P30518); test: Cellular in vitro assay for determining vasopressin receptor activity (V2, CRE-luciferase); format: cell-based; settings: CHO cell line transfected with the human V2 receptor; [Arg8]-vasopressin at EC50 concentration; read-out: IC50 hV2
T2 construct: expressed in transfected cells; host or cells: CHO K1 (ATCC) expressing firefly luciferase under a CRE-responsive promoter
T2 sequence (P30518 whole entry): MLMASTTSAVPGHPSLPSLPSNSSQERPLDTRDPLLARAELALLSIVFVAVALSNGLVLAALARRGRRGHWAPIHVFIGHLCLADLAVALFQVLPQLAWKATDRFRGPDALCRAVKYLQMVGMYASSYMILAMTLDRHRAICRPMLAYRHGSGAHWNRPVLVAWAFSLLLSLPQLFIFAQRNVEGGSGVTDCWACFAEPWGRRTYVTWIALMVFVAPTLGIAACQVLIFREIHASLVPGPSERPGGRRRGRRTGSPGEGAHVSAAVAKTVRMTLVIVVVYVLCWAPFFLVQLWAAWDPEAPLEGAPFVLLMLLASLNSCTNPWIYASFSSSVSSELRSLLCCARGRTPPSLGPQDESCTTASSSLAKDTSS
Procedure, shortened: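 Antagonism was measured as inhibition of a 3-h, EC50-level [Arg8]-vasopressin stimulation, with compounds tested at several concentrations, yielding IC50 values. The read-out was cAMP-driven CRE-luciferase luminescence after lysis, in recombinant CHO K1 cells carrying human V2 receptor. Cells were seeded in 2% FCS DMEM/F12 one day earlier.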

| Compound | IC50 (human V1a receptor) | ratio IC50 hV2/hV1a (human V1a receptor) | IC50 (human V2 receptor) |
| --- | --- | --- | --- |
| C[C@H](OC(N)=O)c1nc(Cn2nc(-c3ccc(Cl)cc3)n(C[C@H](O)C(F)(F)F)c2=O)nn1-c1c(Cl)cccc1Cl [Example 1, (1S)-1-[3-({3-(4-Chlorophenyl)-5-oxo-4-[(2S)-3,3,3-trifluoro-2-hydroxypropyl]-4,5-dihydro-1H-1,2,4-triazol-1-yl}methyl)-1-(2,6-dichlorophenyl)-1H-1,2,4-triazol-5-yl]ethyl Carbamate] | 3.5 nM | 4.7 | 16.3 nM |
| C[C@@H](OC(N)=O)c1nc(Cn2nc(-c3ccc(Cl)cc3)n(C[C@H](O)C(F)(F)F)c2=O)nn1-c1c(Cl)cccc1Cl [Example 2, (1R)-1-[3-({3-(4-Chlorophenyl)-5-oxo-4-[(2S)-3,3,3-trifluoro-2-hydroxypropyl]-4,5-dihydro-1H-1,2,4-triazol-1-yl}methyl)-1-(2,6-dichlorophenyl)-1H-1,2,4-triazol-5-yl]ethyl Carbamate] | 0.97 nM | 6.0 | 5.8 nM |
| C[C@@H](OC(N)=O)c1nc(Cn2nc(-c3ccc(Cl)cc3)n(C[C@H](O)C(F)(F)F)c2=O)nn1-c1c(F)cccc1Cl [Example 3, (1R)-1-[1-(2-Chloro-6-fluorophenyl)-3-({3-(4-chlorophenyl)-5-oxo-4-[(2S)-3,3,3-trifluoro-2-hydroxypropyl]-4,5-dihydro-1H-1,2,4-triazol-1-yl}methyl)-1H-1,2,4-triazol-5-yl]ethyl Carbamate] | 1.35 nM | 5.1 | 6.85 nM |
| C[C@@H](OC(N)=O)c1nc(Cn2nc(-c3ccc(Cl)cc3)n(C[C@H](O)C(F)(F)F)c2=O)nn1-c1ccc(F)cc1Cl [Example 4, (1R)-1-[1-(2-Chloro-4-fluorophenyl)-3-({3-(4-chlorophenyl)-5-oxo-4-[(2S)-3,3,3-trifluoro-2-hydroxypropyl]-4,5-dihydro-1H-1,2,4-triazol-1-yl}methyl)-1H-1,2,4-triazol-5-yl]ethyl Carbamate] | 1.46 nM | 9.2 | 13.4 nM |
| C[C@H](OC(N)=O)c1nc(Cn2nc(-c3ccc(Cl)cc3)n(C[C@H](O)C(F)(F)F)c2=O)nn1-c1ccccc1OC(F)F [Example 5, (1S)-1-{3-({3-(4-Chlorophenyl)-5-oxo-4-[(2S)-3,3,3-trifluoro-2-hydroxypropyl]-4,5-dihydro-1H-1,2,4-triazol-1-yl}methyl)-1-[2-(difluoromethoxy)phenyl]-1H-1,2,4-triazol-5-yl}ethyl Carbamate] | 1.6 nM | 4.4 | 7.05 nM |
| C[C@@H](OC(N)=O)c1nc(Cn2nc(-c3ccc(Cl)cc3)n(C[C@H](O)C(F)(F)F)c2=O)nn1-c1ccccc1OC(F)F [Example 6, (1R)-1-{3-({3-(4-Chlorophenyl)-5-oxo-4-[(2S)-3,3,3-trifluoro-2-hydroxypropyl]-4,5-dihydro-1H-1,2,4-triazol-1-yl}methyl)-1-[2-(difluoromethoxy)phenyl]-1H-1,2,4-triazol-5-yl}ethyl Carbamate] | 0.81 nM | 25.6 | 20.7 nM |
| C[C@H](OC(N)=O)c1nc(Cn2nc(-c3ccc(Cl)cc3)n(C[C@H](O)C(F)(F)F)c2=O)nn1-c1ccccc1OC(F)(F)F [Example 7, (1S)-1-{3-({3-(4-Chlorophenyl)-5-oxo-4-[(2S)-3,3,3-trifluoro-2-hydroxypropyl]-4,5-dihydro-1H-1,2,4-triazol-1-yl}methyl)-1-[2-(trifluoromethoxy)phenyl]-1H-1,2,4-triazol-5-yl}ethyl Carbamate] | 3.6 nM | 7.4 | 26.7 nM |
| C[C@@H](OC(N)=O)c1nc(Cn2nc(-c3ccc(Cl)cc3)n(C[C@H](O)C(F)(F)F)c2=O)nn1-c1ccccc1OC(F)(F)F [Example 8, (1R)-1-{3-({3-(4-Chlorophenyl)-5-oxo-4-[(2S)-3,3,3-trifluoro-2-hydroxypropyl]-4,5-dihydro-1H-1,2,4-triazol-1-yl}methyl)-1-[2-(trifluoromethoxy)phenyl]-1H-1,2,4-triazol-5-yl}ethyl Carbamate] | 0.85 nM | 190.5 | 161 nM |
| C[C@H](OC(N)=O)c1nc(Cn2nc(-c3ccc(Cl)cc3)n(C[C@H](O)C(F)(F)F)c2=O)nn1-c1ccccc1S(N)(=O)=O [Example 9, (1S)-1-[3-({3-(4-Chlorophenyl)-5-oxo-4-[(2S)-3,3,3-trifluoro-2-hydroxypropyl]-4,5-dihydro-1H-1,2,4-triazol-1-yl}methyl)-1-(2-sulfamoylphenyl)-1H-1,2,4-triazol-5-yl]ethyl Carbamate] | 31.5 nM | 4.3 | 135 nM |
| C[C@H](OC(N)=O)c1nc(Cn2nc(-c3ccc(Cl)cc3)n(C[C@H](O)C(F)(F)F)c2=O)nn1-c1ccccn1 [Example 10, (1S)-1-[3-({3-(4-Chlorophenyl)-5-oxo-4-[(2S)-3,3,3-trifluoro-2-hydroxypropyl]-4,5-dihydro-1H-1,2,4-triazol-1-yl}methyl)-1-(pyridin-2-yl)-1H-1,2,4-triazol-5-yl]ethyl Carbamate] | 52.5 nM | 2.0 | 105 nM |
| C[C@@H](OC(N)=O)c1nc(Cn2nc(-c3ccc(Cl)cc3)n(C[C@H](O)C(F)(F)F)c2=O)nn1-c1ccccn1 [Example 11, (1R)-1-[3-({3-(4-Chlorophenyl)-5-oxo-4-[(2S)-3,3,3-trifluoro-2-hydroxypropyl]-4,5-dihydro-1H-1,2,4-triazol-1-yl}methyl)-1-(pyridin-2-yl)-1H-1,2,4-triazol-5-yl]ethyl Carbamate] | 115 nM | 2.0 | 225 nM |
| C[C@H](OC(N)=O)c1nc(Cn2nc(-c3ccc(Cl)cc3)n(C[C@H](O)C(F)(F)F)c2=O)nn1-c1ncccc1F [Example 12, (1S)-1-[3-({3-(4-Chlorophenyl)-5-oxo-4-[(2S)-3,3,3-trifluoro-2-hydroxypropyl]-4,5-dihydro-1H-1,2,4-triazol-1-yl}methyl)-1-(3-fluoropyridin-2-yl)-1H-1,2,4-triazol-5-yl]ethyl Carbamate] | 35.5 nM | 3.6 | 127 nM |

More lines, now with the values ahead:

| IC50 (human V1a receptor) | ratio IC50 hV2/hV1a (human V1a receptor) | IC50 (human V2 receptor) | Compound |
| --- | --- | --- | --- |
| 5.8 nM | 23.1 | 134 nM | O=C1NC(c2nc(Cn3nc(-c4ccc(Cl)cc4)n(C[C@H](O)C(F)(F)F)c3=O)nn2-c2ncccc2Cl)CO1 (single isomer, unassigned) [Example 113] |
| 22.7 nM | 23.2 | 525 nM | O=C1NC(c2nc(Cn3nc(-c4ccc(Cl)cc4)n(C[C@H](O)C(F)(F)F)c3=O)nn2-c2ncccc2Cl)CO1 (single isomer, unassigned) [Example 114] |
| 17 nM | 22.7 | 385 nM | O=C1NC(c2nc(Cn3nc(-c4ccc(Cl)cc4)n(C[C@H](O)C(F)(F)F)c3=O)nn2-c2ncccc2OC(F)(F)F)CO1 (single isomer, unassigned) [Example 118] |
| 57 nM | 15.4 | 875 nM | O=C1NC(c2nc(Cn3nc(-c4ccc(Cl)cc4)n(C[C@H](O)C(F)(F)F)c3=O)nn2-c2ncccc2OC(F)(F)F)CO1 (single isomer, unassigned) [Example 119] |
| 147 nM | 18.8 | 2780 nM | CC(=O)NC(CO)c1nc(Cn2nc(-c3ccc(Cl)cc3)n(C[C@H](O)C(F)(F)F)c2=O)nn1-c1ncccc1OC(F)(F)F (single isomer, unassigned) [Example 121] |
| 6.35 nM | 44.1 | 280 nM | CC(=O)NC(CO)c1nc(Cn2nc(-c3ccc(Cl)cc3)n(C[C@H](O)C(F)(F)F)c2=O)nn1-c1ncccc1OC(F)(F)F (single isomer, unassigned) [Example 122] |
| 1380 nM | 0.9 | 1260 nM | CNc1ccncc1-n1nc(Cn2nc(-c3ccc(Cl)cc3)n(C[C@H](O)C(F)(F)F)c2=O)nc1C(C)NC(C)=O (single isomer, unassigned) [Example 126] |
| 53 nM | 29.3 | 1550 nM | CNc1ccncc1-n1nc(Cn2nc(-c3ccc(Cl)cc3)n(C[C@H](O)C(F)(F)F)c2=O)nc1C(C)NC(C)=O (single isomer, unassigned) [Example 127] |
| 9.55 nM | 161.3 | 1540 nM | CN1C(=O)CCC1c1nc(Cn2nc(-c3ccc(Cl)cc3)n(C[C@H](O)C(F)(F)F)c2=O)nn1CCC(F)(F)F (single isomer, unassigned) [Example 131] |
| 18.5 nM | 93.5 | 1730 nM | CN1C(=O)CCC1c1nc(Cn2nc(-c3ccc(Cl)cc3)n(C[C@H](O)C(F)(F)F)c2=O)nn1CCC(F)(F)F (single isomer, unassigned) [Example 132] |
| 13.5 nM | 2.6 | 35 nM | C[C@@H](OC(N)=O)c1nc(Cn2nc(-c3ccc(Cl)cc3)n(C[C@H](O)C(F)(F)F)c2=O)nn1-c1ncccc1F [Example 13, (1R)-1-[3-({3-(4-Chlorophenyl)-5-oxo-4-[(2S)-3,3,3-trifluoro-2-hydroxypropyl]-4,5-dihydro-1H-1,2,4-triazol-1-yl}methyl)-1-(3-fluoropyridin-2-yl)-1H-1,2,4-triazol-5-yl]ethyl Carbamate] |
